Test results from patent publication US9353088B2, “Crystalline pharmaceutical and methods of preparation and use thereof” (SARcode Bioscience Inc., priority 2009, dated 2016).
“And” between values parts separate entries of the source, which are not always exact repeats. Identical values can stand only once. “Also recorded” adds a separate entry of the source. Like-named read-outs stand apart in the source and are kept apart here.

Assays:
[1] = Plasma PK after single IV bolus dose; type: in vivo; conditions: rat, rats, read-out: clearance rate
From the text: The systemic clearance rate can be calculated by various means known in the art. For example, the clearance rate for a drug may be calculated from an analysis of the drug concentration time profile for the rate of disappearance of a drug from the plasma following administration of the formulation, for example after a single intravenous injection. One of skill in the art could use a variety of methods to calculate and determine systemic clearance rates. For example, the rate of disappearance may be measured by analysis of the absorption, distribution, metabolism and excretion of a radiolabelled form of a drug or other means of measuring the level of drug in plasma, such as gas chromatography (Sapirstein et al., 1955, Am. Jour. Physiol., Vol. 181, pp. 330; U.S. Pat. No. 4,908,202), liquid chromatography-mass spectrometry methods (LCMS) or HPLC methods. As another example, the clearance rate may be calculated by introducing the formulation to the subject by continuous intravenous infusion until an equilibrium is reached at which the plasma level of the substance (as determined by analysis of plasma samples) is steady, at which point the infusion rate is equal to the rate of clearance from plasma (Earle et al., 1946, Proc. Soc. Exp. Biol. Med., Vol. 62, pp. 262 ff.) […]

[2] = In-vitro percutaneous absorption following topical application
[3] = Solubility studies for dermal formulations; type: physicochemical
[4] = Phase 1 clinical trial of Ophthalmic Solution, safety and tolerability; type: in vivo, human
From the text: The objectives of the trial were to measure safety and tolerability, and pharmacokinetics in tear and plasma. The dosing schedule (OU; Oculus Uterque (each eye or both eyes)) was divided into 3 periods, each separated by a 72-hour wash out interval: once/day×1 day (drug one eye; placebo fellow eye), twice/day×10 days, and thrice/day×10 days, 14-day observation. Slit lamp examination of the eye, BCVA (Best Corrected Visual Acuity), STTs (Schirmer Tear Test), TBUT (Tear Break-Up Time), IOP (Intraocular pressure) were assessed at screening and the beginning and end of each period. For each cohort, masked safety data was reviewed by a Safety Committee prior to allowing dose escalation of the next cohort. A total of 2856 doses (102 drops/subject) were administered over 1148 total subject study days (41 study days/subject) in 56 eyes. All subjects in all cohorts completed the study, and no study drug doses were missed.

[5] = tested on: micronuclei in polychromatic erythrocytes (PCE); assay: In vivo mouse bone marrow micronucleus assay; design: species or system CD-1 (ICR) BR mice; conditions: repeated IV administrations
[6] = Pilot mini-pig dermal study; type: in vivo, mini-pigs; conditions: DMSO, gel, ointment, lotion at 1%, dermal TID for 7 days
[7] = tested on: Keratoconjunctivitis Sicca (KCS); assay: Canine keratoconjunctivitis sicca (KCS) study; type: in vivo, dog; conditions: for Schirmer Tear Test (OS), Mean: Dog #7 not included
From the text: If dogs had been treated with topical CsA or tacrolimus in the previous six months, they were not enrolled. […] Animals were subjected to an ocular examination once during the initial visit and during five visits over sixteen weeks of the study (Weeks, 2, 4, 8, 12 and 16). The last OE was approximately four weeks after the last dose of the compound of Formula I and after one month of CsA treatment. The adnexa and anterior portions of both eyes were examined using an indirect opthalmoscope. The eyes were dilated with a mydriatic when applicable, to allow evaluation of the lens and fundus, including the retina. An evaluation using a modified McDonald-Shaddock scoring system was performed in conjunction with the slitlamp ocular examinations at each interval. Tears were measured using STT strips during the initial visit and each of the five follow-up visits on Weeks 2, 4, 8, 12 and 16. One strip of STT paper was used for each eye for each interval. […] The length, in mm, of wetting below the notch of the paper was recorded. Fluorescein and rose bengal staining was performed at the each of the initial and follow up examinations. Intraocular pressure measurements (IOPs) were performed using a Tono-Pet Vet® in conjunction with each of the OEs. Digital ocular images were taken before and after staining (with fluorescein and rose bengal) during each of the OEs. Conjunctival biopsies were taken at the initial (pretreatment) visit and the Week 12 visit. The second biopsy was taken more lateral (approx. 1 mm) to the initial biopsy. Following appropriate preparation a small conjunctival biopsy was taken from the ventral fornix of each eye.

[8] = Pilot ocular tolerance of topically administered compound in dogs-PK; type: in vivo; conditions: up to 10% strength at 3 doses/day
[9] = tested on: Chinese hamster ovary (CHO) cells; assay: In vitro chromosomal aberration assay in CHO cells; type: cell-based; conditions: with and without metabolic activation; except single toxic dose 3500 μg/mL without activation
From the text: The biological relevance of this response is equivocal due to cytotoxicity.

[10] = Week 1 (initial visit), individual dogs, Dog ID 1-7 = r5-r11
[11] = Week 2, individual dogs, 1% solution TID, listed as compound of Formula I
[12] = Week 4, individual dogs, 1% solution TID, listed as compound of Formula I
[13] = Week 8, individual dogs, 1% solution TID, listed as compound of Formula I
[14] = Week 12, individual dogs, 1% solution TID, listed as compound of Formula I
[15] = Week 16, individual dogs, four weeks after last dose and after one month of CsA
[16] = Weeks 1-12, individual dogs 1-7 = r6-r12
[17] = during the 12-week treatment period

## CS(=O)(=O)c1cccc(C[C@H](NC(=O)c2c(Cl)cc3c(c2Cl)CCN(C(=O)c2ccc4ccoc4c2)C3)C(=O)O)c1 [Compound of Formula I]
[1]
  clearance: > 100 mL/min/kg
[2]; determined using [14C]-compound
  dose penetration into dermis: 2-4%
[2]; skin transport studies, microtomed human skin, 1% (w/w) prototypes
  compound level in dermis: greater than 10 micromolar
[3]; ethanol/glycol/transcutol solution
  solubility: 10 % (w/w)
[3]; water/glycol/transcutol solution
  solubility: 2 % (w/w)
[4]; any dose strength (0.1-5%) or dose regimen, healthy adults
  adverse events considered related to administration: No deaths, discontinuations, serious or severe ocular or non-ocular AEs
[4]; throughout the trial
  total lymphocyte, CD3, CD4, CD8 cell counts: no evidence of lymphocyte or neutrophil suppression
[4]; topical ocular instillation, dose strengths up to 5% TID
  overall safety and tolerability: safe and well-tolerated
[5]
  bone marrow micronucleus result: no effect; also recorded: negative
[6]
  toxicity: No toxicity was reported
[7]
  Schirmer Tear Test (OS): 9 mm
[7]; 672 h
  Schirmer Tear Test (OS): 17 mm
[7]; Week 1 (initial visit), Dog #1 not included
  Schirmer Tear Test (OD), Mean: 5.5 mm
[7]; Week 1 (initial visit)
  Schirmer Tear Test (OS), Mean: 4.2 mm
[7]; [10]
  Schirmer Tear Test (OD): 8 mm (2×) and 6 mm (2×) and 15 mm and 0 mm and 5 mm
  Schirmer Tear Test (OS): 18 mm and 0 mm (3×) and 9 mm and 7 mm
[7]; Week 2, Dog #1 not included
  Schirmer Tear Test (OD), Mean: 7.8 mm
[7]; Week 2
  Schirmer Tear Test (OS), Mean: 4.8 mm
[7]; Week 2, individual dogs, 1% solution TID
  Schirmer Tear Test (OS): 4 mm
[7]; [11]
  Schirmer Tear Test (OD): 10 mm and 2 mm (2×) and 18 mm and 11 mm (3×)
  Schirmer Tear Test (OS): 0 mm (2×) and 14 mm and 3 mm and 8 mm
[7]; Week 4, Dog #1 not included
  Schirmer Tear Test (OD), Mean: 7.0 mm
[7]; Week 4
  Schirmer Tear Test (OS), Mean: 6.7 mm
[7]; Week 4, individual dogs, 1% solution TID
  Schirmer Tear Test (OS): 14 mm
[7]; [12]
  Schirmer Tear Test (OD): 15 mm and 2 mm and 12 mm and 0 mm and 5 mm and 10 mm (2×)
  Schirmer Tear Test (OS): 0 mm (2×) and 7 mm and 5 mm and 14 mm
[7]; Week 8, Dog #1 not included
  Schirmer Tear Test (OD), Mean: 8.5 mm
[7]; Week 8
  Schirmer Tear Test (OS), Mean: 6.5 mm
[7]; Week 8, individual dogs, 1% solution TID
  Schirmer Tear Test (OS): 8 mm
[7]; [13]
  Schirmer Tear Test (OD): 17 mm and 1 mm and 16 mm and 8 mm and 7 mm (2×) and 11 mm
  Schirmer Tear Test (OS): 19 mm and 0 mm and 2 mm and 17 mm and 6 mm and 8 mm
[7]; Week 12, Dog #1 not included
  Schirmer Tear Test (OD), Mean: 8.8 mm
[7]; Week 12
  Schirmer Tear Test (OS), Mean: 8.7 mm
[7]; Week 12, individual dogs, 1% solution TID
  Schirmer Tear Test (OS): 8 mm
[7]; [14]
  Schirmer Tear Test (OD): 16 mm and 0 mm and 13 mm (2×) and 8 mm and 7 mm and 9 mm
  Schirmer Tear Test (OS): 18 mm and 3 mm and 7 mm and 15 mm and 4 mm and 8 mm
[7]; Week 16, after one month of CsA, Dog #1 and anomalous Dog #5 value not included
  Schirmer Tear Test (OD), Mean: 11.7 mm
[7]; Week 16, after one month of CsA
  Schirmer Tear Test (OS), Mean: 11.0 mm
[7]; [15]
  Schirmer Tear Test (OD): 18 mm and 12 mm (2×) and 8 mm (3×) and 22** mm
  Schirmer Tear Test (OS): 18 mm and 3 mm and 5 mm and 16 mm and 7 mm and 19 mm
[7]; Weeks 1-12
  Maximum-Minimum analysis, Total OD: Total = 28
  Maximum-Minimum analysis, Total OS: Total = 44
[7]; [16]
  Maximum-Minimum analysis, maximal change in STT, OD: 3 and 8 (3×) and −4 and 5
  Maximum-Minimum analysis, maximal change in STT, OS: 7 (2×) and 11 and 3 and 10 and 6
[7]; [17]
  average STT improvement, all 12 eyes: 4 mm
  average improvement in OD (right eye) STT: 3.3 mm
  average improvement in OS (left eye) STT: 4.5 mm
[7]; pretreatment vs Week 12
  Histopathological evaluation of conjunctival biopsies before and after treatment: attenuation of lymphocyte accumulation
[7]; week 12
  Schirmer test scores over pretreatment: Significant improvement
[8]
  ocular safety and tolerability: safe and well tolerated
[9]
  induction of structural chromosomal aberrations: negative
